Assay results from patent US20040106545A1, “Compounds and methods for modulating cell adhesion” (priority 1996, published 2004).
Entries after “also recorded” stand apart in the source; their conditions may differ. Read-outs that look alike come from different tables or passages of the source. Positions of bridges follow the written chain, without caps; N, C: chain ends. Residues, ends and D or L forms follow the SMILES beside them.

Key:
[1] = system: Bovine pulmonary artery endothelial cells; test: Disruption of bovine endothelial cell adhesion; type: cell-based; details: 500 μg/ml, 30 minutes
Protocol: For use within one such assay, bovine pulmonary artery endothelial cells may be harvested by sterile ablation and digestion in 0.1% collagenase (type II; Worthington Enzymes, Freehold, N.J.). Cells may be maintained in Dulbecco's minimum essential medium supplemented with 10% fetal calf serum and 1% antibiotic-antimycotic at 37° C. in 7% CO2 in air. Cultures may be passaged weekly in trypsin-EDTA and seeded onto tissue culture plastic at 20,000 cells/cm^2. Endothelial cultures may be used at 1 week in culture, which is approximately 3 days after culture confluency is established. The cells may be seeded onto coverslips and treated (e.g., for 30 minutes) with modulating agent or a control compound at, for example, 500 μg/ml and then fixed with 1% paraformaldehyde. As noted above, disruption of cell adhesion may be determined visually within 24 hours, by observing retraction of the cells from one another. This assay evaluates the effect of a modulating agent on N-cadherin mediated cell adhesion.
Bovine pulmonary artery endothelial cells were harvested by sterile ablation and digestion in 0.1% collagenase (type II; Worthington Enzymes, Freehold, N.J.). Cells were maintained in Dulbecco's minimum essential medium (Clonetics, San Diego, Calif.) supplemented with 10% fetal calf serum (Atlantic Biologicals, Nor cross, Ga.) and 1% antibiotic-antimycotic at 37° C. in 7% CO2 in air. Cultures were passaged weekly in trypsin-EDTA (Gibco, Grand Island, N.Y.) and seeded onto tissue culture plastic at 20,000 cells/cm^2 for all experiments. Endothelial cultures were used at 1 week in culture, which is approximately 3 days after culture confluency was established. The cells used in all protocols were between 4th passage and 10th passage. The cells were seeded onto coverslips and treated 30 minutes with N—Ac-CHAVC-NH2 (SEQ ID NO:10) or N—Ac-CHGVC-NH2 (SEQ ID NO:11) at 500 μg/ml and then fixed with 1% paraformaldehyde.

MDA-MB231 = test: Cytotoxicity, MTT assay, MDA-MB231; type: cell-based, human
How it was run: (§1)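 Human primary endothelial cells, fibroblast lines (IAFp2, WI-38) and cancer lines (MDA-MB231, PC-3) receive the CHAVC peptide or the CHGVC control at ≤100 μM. Viability is scored by MTT and DNA synthesis by ^3H-thymidine uptake.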

SKOV3 cells = test: Disruption of human ovarian cancer cell (SKOV3) adhesion; type: cell-based; details: for disruption of SKOV3 cell adhesion: 1 mg/mL media, within 24 hours; for activity in SKOV3 cells (cell adhesion): 0.01-1 mg/mL
Protocol: FIGS. 37A and 37B are photographs illustrating the effect of N—Ac-CHAVC-Y—NH2 (SEQ ID NO:84) on SKOV3 cell adhesion. A confluent culture of SKOV3 cells was briefly trypsinated and counted using a hemacytometer. The cells were diluted to 5×10^3/mL in MEM (Gibco BRL) containing 10% FBS (Wisent). A 10 mg/mL solution of peptide was added directly to the media at a concentration of 1 mg/mL. The plate was incubated in a humidified chamber at 37° C. for 24 hours in 5% CO2. Morphological changes were evaluated after 24 hours.
The human ovarian cancer cell line SKOV3 (ATCC #HTB-77) expresses N-cadherin. SKOV3 cells were cultured in a modified MEM-based media containing 10% FCS. Cells were grown in T-250 culture flasks and maintained by periodic subculturing. Cyclic peptides were tested on cells grown in individual wells of 96-well culture dishes (surface area of each well was 0.32 cm^2). Cells were harvested from flasks and seeded at a density of 50,000 cells per well in 0.1 mL media containing the cyclic peptides at concentrations of 1, 0.1, or 0.01 mg/mL, or in the absence of cyclic peptide. Media control wells were also established. Cultures were evaluated periodically by microscopic examination under both bright field and phase contrast conditions. Cultures were maintained for 48 hours.

PC-3 = test: Cytotoxicity, MTT assay, PC-3; type: cell-based, human
How it was run: as §1

[2] = system: chick embryonic chorioallantoic membranes; test: Chick chorioallantoic membrane angiogenesis assay; type: in vivo; details: for Percent Inhibition of Angiogenesis: 24 hours; for inhibition of angiogenesis (in words): 3, 17 and 33 μg/mesh
Protocol: Another cell adhesion assay evaluates the ability of a modulating agent to block angiogenesis (the growth of blood vessels from pre-existing blood vessels). This ability may be assayed using the chick chorioallantoic membrane assay described by Iruela-Arispe et al., Molecular Biology of the Cell 6:327-343, 1995. Briefly, a modulating agent may be embedded in a mesh composed of vitrogen at one or more concentrations (e.g., ranging from about 1 to 100 μg/mesh). The mesh(es) may then be applied to chick chorioallantoic membranes. After 24 hours, the effect of the peptide may be determined using computer assisted morphometric analysis. A modulating agent should inhibit angiogenesis by at least 25% at a concentration of 33 μg/mesh.
The chick chorioallantoic membrane assay was used to assess the effects of cyclic peptides on angiogenesis (Iruela-Arispe et al., Molecular Biology of the Cell 6:327-343, 1995). Cyclic peptides were embedded in a mesh composed of vitrogen at concentrations of 3, 17, and 33 μg/mesh. The meshes were then applied to 12-day-old chick embryonic chorioallantoic membranes. After 24 hours, the effects of the peptides on angiogenesis were assessed by computer assisted morphometric analysis.

[3] = 3 μg/mesh, absence (−) of 0.01 mM VEGF
[4] = 3 μg/mesh, presence (+) of 0.01 mM VEGF
[5] = 17 μg/mesh, absence (−) of 0.01 mM VEGF
[6] = 17 μg/mesh, presence (+) of 0.01 mM VEGF
[7] = 33 μg/mesh, absence (−) of 0.01 mM VEGF
[8] = 33 μg/mesh, presence (+) of 0.01 mM VEGF

| Structure (SMILES) | effect on endothelial cell monolayer / morphology [1] | IC50 (MDA-MB231) | disruption of SKOV3 cell adhesion (SKOV3 cells) | IC50 (PC-3) | Percent Inhibition of Angiogenesis [2, 3] | Percent Inhibition of Angiogenesis [2, 4] | Percent Inhibition of Angiogenesis [2, 5] | Percent Inhibition of Angiogenesis [2, 6] | Percent Inhibition of Angiogenesis [2, 7] | Percent Inhibition of Angiogenesis [2, 8] | inhibition of angiogenesis (in words) [2] | activity in SKOV3 cells (cell adhesion) (SKOV3 cells) | effect on endothelial cell monolayer / morphology ([1]; listed as N—Ac-CAHAVDIC-NH2) | IC50 (MDA-MB231; human) | SKOV3 cell morphology (SKOV3 cells; 0.5 or 1 mg/ml, 24-48 hours (figure legends)) | IC50 (PC-3; human) |
| --- | --- | --- | --- | --- | --- | --- | --- | --- | --- | --- | --- | --- | --- | --- | --- | --- |
| CC(=O)N[C@H]1CSSC[C@@H](C(N)=O)NC(=O)[C@H](C(C)C)NC(=O)CNC(=O)[C@H](Cc2c[nH]cn2)NC1=O [N—Ac—CHGVC—NH2, reference compound] | had no affect on the cells | > 100 µM | had no affect on cell adhesion | > 100 µM | – | – | – | – | – | – | – | – | – | – | – | – |
| CC(=O)N[C@H]1CSSC[C@@H](C(N)=O)NC(=O)[C@H](CC(=O)O)NC(=O)[C@H](C(C)C)NC(=O)[C@H](C)NC(=O)[C@H](Cc2c[nH]cn2)NC(=O)[C@H](C)NC1=O [N—Ac—CAHAVDC—NH2, N-Ac-Cys-Ala-His-Ala-Val-Asp-Cys-NH2] (Ac-CAHAVDC-NH2; disulfide 1-7) | endothelial cells retracted from one another; also recorded: had a slight effect | > 100 µM | – | > 100 µM | 21% | 59% | 27% | 72% | 31% | 79% | inhibited angiogenesis significantly | inactive | – | – | – | – |
| CC[C@H](C)[C@@H]1NC(=O)[C@H](CC(=O)O)NC(=O)[C@H](C(C)C)NC(=O)[C@H](C)NC(=O)[C@H](Cc2c[nH]cn2)NC(=O)[C@H](C)NC(=O)[C@@H](NC(C)=O)CSSC[C@@H](C(N)=O)NC1=O (Ac-CAHAVDIC-NH2; disulfide 1-8) | – | > 100 µM | – | > 100 µM | −1%^ | 21% | 15% | 37% | 33% | 49% | inhibited angiogenesis significantly | inactive | neither of the cyclic peptides show activity; also recorded: had no effect on endothelial cell morphology | – | – | – |
| CC(=O)N[C@H]1CSSC[C@@H](C(N)=O)NC(=O)[C@H](C(C)C)NC(=O)[C@H](C)NC(=O)[C@H](Cc2c[nH]cn2)NC1=O [N—Ac—CHAVC—NH2, N-Ac-Cys-His-Ala-Val-Cys-NH2] | endothelial cells retracted from one another; also recorded: disrupted the endothelial cell monolayer | – | disrupted SKOV3 cell adhesion | – | 12% | 46% | 22% | 51% | 28% | 51% | – | – | – | > 100 µM | SKOV3 cells retract from one another and round-up | > 100 µM |
